In paper PMC12603070, “A high-throughput screening approach to discover potential colorectal cancer chemotherapeutics: repurposing drugs to identify novel disruptors of 14-3-3 proteins” (Cell Death & Disease, 2025):

How the values were obtained:
[1] = biological target: T1, 14-3-3ζ-Rluc8:112-136F-mC complex (Homo sapiens, UniProt P63104); test: Co-immunoprecipitation of 14-3-3ζ-Rluc8:112-136F-mC complex; assay type: cell-based; details: NIH-3T3 expressing BRET sensor, 20 μM, 3 h, vs DMSO
T1 construct: expressed in transfected cells; host or cells: NIH-3T3 fibroblasts, bi-directional pBI-CMV1 plasmid
T1 sequence (P63104 1-245): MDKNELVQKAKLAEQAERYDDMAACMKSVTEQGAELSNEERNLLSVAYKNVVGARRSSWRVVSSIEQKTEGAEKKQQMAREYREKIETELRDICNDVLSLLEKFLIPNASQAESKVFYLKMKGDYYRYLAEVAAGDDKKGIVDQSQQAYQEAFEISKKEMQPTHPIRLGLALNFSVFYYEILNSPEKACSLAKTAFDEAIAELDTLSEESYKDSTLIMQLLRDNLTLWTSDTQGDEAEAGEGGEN
Experimental: NIH-3T3 cells were plated in 10 cm culture dishes at a density of 550,000 cells per dish. Transfection was conducted 48 h post-seeding. At 48 h post-transfection, DMSO or FTY-720 (20 μM) was added to the culture media and incubated with cells expressing the BRET-sensor for 3 h. Cell lysates were collected using RIPA buffer (0.9% NaCl, 1% v/v triton X-100, 0.5% sodium deoxycholate, 0.1% SDS, and 0.6% tris base), supplemented with protease inhibitor cocktail (Sigma-Aldrich; #P8340). The protein concentration was determined using the Bradford assay. Equal amounts of protein (100 μg) were subjected to immunoprecipitation using 1 μg anti-GFP antibody per sample (Invitrogen; #A-11120) and protein A/G magnetic beads (Thermo Fisher Scientific, Massachusetts, USA; #80104G), according to the manufacturer’s instructions. Antibodies against GFP were used to precipitate mCitrine due to the high degree of sequence homology. Immunoprecipitated proteins were eluted by boiling the beads in 1 X Laemmli protein sample buffer (Bio-Rad, California, USA; #1610747) for 5 min. Eluted samples were resolved in 10% SDS-PAGE gels and transferred to PVDF membranes (Bio-Rad, California, USA; #10026933) using the Trans-Blot Turbo transfer system (Bio-Rad). […] Protein bands were detected using Clarity Max western ECL substrate. […]

[2] = test system: BAD translocation to mitochondria in NIH-3T3 cells; test: Confocal imaging of BAD-mCitrine translocation to TMRE-labeled mitochondria in NIH-3T3; assay type: cell-based; details: NIH-3T3 expressing BAD-mCitrine; R18 10 µM, FTY720 2 µM; 24 h
Experimental: To visualize BAD translocation, 35 mm glass-bottom dishes (ibidi, Gräfelfing, Germany; #81158) were coated with 0.1 mg/mL Poly-D-lysine hydrobromide for 2 h at 37 °C. After coating, dishes were washed twice with sterilized water. Subsequently, cells transfected with BAD-mCitrine were seeded at a density of 20,000 cells per dish and incubated for 24 h to allow for cell attachment. For live-cell imaging, cells were then incubated for 1 h with the mitochondrial membrane potential dye tetramethylrhodamine ethyl ester (TMRE, Invitrogen; #T668) at a final concentration of 100 nM, according to the manufacturer’s instructions. Images were acquired on a Zeiss (Oberkochen, Germany) LSM-900 Airyscan inverted confocal microscope equipped with an environmental incubation system, laser lines including 488 and 561 nm, and an oil immersion 60×/1.40 Plan achromat objective. The signal from the YFP fluorophore (ex. 488 nm, det. 525–542 nm) and the TMRE (ex. 561 nm, det. 600–700 nm) were collected in super-resolution mode. The cell viability dye, DRAQ (BioLegend, California, USA; #424101), was added to the medium at a 1:1000 dilution from the commercial stock and incubated at room temperature for 30 min prior to live-cell imaging. To quantify the colocalization of BAD-mCitrine and the mitochondria labeled with the TMRE, the JACoP plugin in ImageJ was employed. […]

`CCCCCCCCc1ccc(CCC(N)(CO)CO)cc1` [Fingolimod (FTY720), Fingolimod] was tested, and the “Abundance of 14-3-3ζ-Rluc8 within the co-immunoprecipitated complex” value [1] was “reduced” and the “BAD translocation to TMRE-labeled mitochondria” value [2] was “promoted BAD translocation”.
